Here are results for 13 molecules from PubChem BioAssay (NCI).

Structures are written as SMILES.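 All cell lines were grown in 96-well plates and treated with compound for 48 hours. GI50 = concentration required for 50% inhibition of growth. TGI: total growth inhibition.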 Some results are limits rather than exact numbers.

Some test systems named below: EKVX NSCLC; MALME-3M melanoma; NCI-H226 lung; OVCAR-8 ovarian; SF-539 CNS; SW-620 colon; TK-10 renal; U251 CNS; UO-31 renal.
Holding throughout (test): NCI-60 cell line screen, 48 h

For the molecule `Cn1c(N)nc(=O)c2c1N(C1OC(CO)C(O)C1O)CN2Cc1ccccc1` (stereo not given), the TGI in the test with EKVX NSCLC, in the test with MALME-3M melanoma, with NCI-H226 lung, with OVCAR-8 ovarian, in the test with SF-539 CNS and in the test on SW-620 colon was greater than 100 µM in each case. For the same molecule, the TGI in the test on TK-10 renal, in the test on U251 CNS and in the test with UO-31 renal was greater than 100 µM in each case.
For the molecule `NC1=NN(c2ccccc2)C(=O)C1C(=O)C(=O)Nc1nccs1` (stereo not given), the TGI in the test on EKVX NSCLC, with MALME-3M melanoma, with NCI-H226 lung, with OVCAR-8 ovarian, with SF-539 CNS and in the test with SW-620 colon was greater than 100 µM throughout. Further, the TGI in the test on TK-10 renal, in the test on U251 CNS and with UO-31 renal was greater than 100 µM in each case.
With `CC(=O)O[C@@]1(C)[C@@H](C)C(=O)O[C@@H]2CCN3CC=C(COC(=O)[C@]1(C)O)[C@H]23`, the TGI in the test with MALME-3M melanoma, with NCI-H226 lung, in the test with OVCAR-8 ovarian, in the test with SF-539 CNS, in the test with SW-620 colon and in the test on TK-10 renal was greater than 100 µM throughout. Also, the TGI in the test with U251 CNS and with UO-31 renal was greater than 100 µM in each case.
For the molecule `COc1ccc2c3c(c(C(=O)c4ccccc4)oc13)CCC2`, the TGI in the test with EKVX NSCLC, with OVCAR-8 ovarian, in the test with SF-539 CNS, in the test on SW-620 colon, in the test with TK-10 renal and with U251 CNS was greater than 100 µM throughout.
On to `C/C=C(\CCOS(=O)(=O)c1ccc(C)cc1)[Si](C)(C)C`, for which the TGI with EKVX NSCLC, in the test with MALME-3M melanoma, with OVCAR-8 ovarian, in the test on SF-539 CNS, in the test on SW-620 colon and in the test on TK-10 renal was greater than 100 µM throughout. Besides, the TGI in the test with U251 CNS and in the test with UO-31 renal was greater than 100 µM throughout.
For the molecule `Nc1n[n+](-c2ccccc2)no1`, the TGI with EKVX NSCLC, in the test on MALME-3M melanoma, in the test with NCI-H226 lung, with OVCAR-8 ovarian, with SF-539 CNS and in the test on SW-620 colon was greater than 100 µM each time. The TGI in the test on TK-10 renal, in the test on U251 CNS and in the test on UO-31 renal was greater than 100 µM each time.
Turning to `O=C1/C(=C/c2ccc(Cl)cc2)CCC/C1=C\c1ccc(Cl)cc1`, the GI50 in the test on EKVX NSCLC was greater than 100 µM; in the test on MALME-3M melanoma, greater than 100 µM; in the test with NCI-H226 lung, 5.18 µM; with OVCAR-8 ovarian it was 3.64 µM; in the test with SF-539 CNS, 7.85 µM; in the test with SW-620 colon, 2.36 µM. Besides, the GI50 in the test with TK-10 renal is 6.81 µM; in the test with U251 CNS, 2.66 µM; in the test with UO-31 renal it was 10.8 µM. Further, the TGI with EKVX NSCLC was greater than 100 µM; with MALME-3M melanoma it was greater than 100 µM; in the test on NCI-H226 lung, greater than 100 µM; with OVCAR-8 ovarian it was greater than 100 µM; in the test with SF-539 CNS it was greater than 100 µM; in the test with SW-620 colon, 6.39 µM. In addition, the TGI in the test on TK-10 renal is greater than 100 µM; with U251 CNS, 7.88 µM; in the test on UO-31 renal, greater than 100 µM.
For `Cc1[nH]c(=O)[nH]c1C(=O)c1ccc(-n2ccnc2)cc1`, the TGI in the test with MALME-3M melanoma, in the test on NCI-H226 lung, in the test on OVCAR-8 ovarian, in the test on SF-539 CNS, with SW-620 colon and with U251 CNS was greater than 100 µM in each case. In the test with UO-31 renal, this molecule registered a TGI greater than 100 µM.
As for `CC1=C(O)/C(=C/C(C)CCC/C(C)=C/C=C/C(C)CCCc2ccoc2)OC1=O` (stereo not given), the TGI with EKVX NSCLC is 67.1 µM; with MALME-3M melanoma it was 49.4 µM; in the test on NCI-H226 lung, 68.8 µM; with OVCAR-8 ovarian, greater than 100 µM; with SF-539 CNS, greater than 100 µM; with SW-620 colon, greater than 100 µM. Moreover, the TGI with TK-10 renal is 78.6 µM; with U251 CNS, greater than 100 µM; in the test on UO-31 renal, greater than 100 µM.
As to `COC(=O)C(C(=O)C(=O)Nc1cccc([N+](=O)[O-])c1)c1nc2ccc([N+](=O)[O-])cc2[nH]c1=O` (stereo not given), the TGI in the test with EKVX NSCLC, in the test on MALME-3M melanoma, with NCI-H226 lung, in the test on OVCAR-8 ovarian, in the test with SF-539 CNS and in the test with SW-620 colon was greater than 100 µM each time. Moreover, the TGI with TK-10 renal, with U251 CNS and in the test with UO-31 renal was greater than 100 µM in each case.
Consider `O=C(O/N=C1/CCC/C1=C\c1ccccc1)c1ccc(Cl)c(Cl)c1`, for which the TGI with EKVX NSCLC, in the test with MALME-3M melanoma, in the test with NCI-H226 lung, in the test with OVCAR-8 ovarian, in the test with SF-539 CNS and in the test on SW-620 colon was greater than 100 µM throughout. In addition, the TGI in the test on TK-10 renal, in the test on U251 CNS and with UO-31 renal was greater than 100 µM each time.
For the molecule `CC(=O)[CH-]C(=O)c1ccccc1.CC(=O)[CH-]C(=O)c1ccccc1.Cc1cc([O-])ccc1Cl.Cc1cc([O-])ccc1Cl.[Ti+4]`, the GI50 in the test on EKVX NSCLC was 18 µM; in the test on MALME-3M melanoma, 20.9 µM; in the test on NCI-H226 lung it was 20.2 µM; in the test with OVCAR-8 ovarian, 16.8 µM; with SF-539 CNS, 25.9 µM; with SW-620 colon, 34 µM. Further, the results for the GI50 with U251 CNS and in the test on UO-31 renal were 22.1 µM and 15.5 µM, respectively. The TGI in the test with EKVX NSCLC was 47.3 µM; in the test with MALME-3M melanoma, 52.8 µM; in the test on NCI-H226 lung, 69.2 µM; with OVCAR-8 ovarian, 59.1 µM; in the test on SF-539 CNS, 72.9 µM; in the test on SW-620 colon it was greater than 100 µM. Further, the TGI with U251 CNS was greater than 100 µM; in the test with UO-31 renal it was 47.4 µM.
Regarding `CCCCCCCCCC(=O)OCC1OC(n2cc(F)c(=O)[nH]c2=O)C(NC(=O)OCc2ccccc2)C(OC(=O)CCCCCCCCC)C1O` (stereo not given), the TGI in the test on EKVX NSCLC is greater than 100 µM; with MALME-3M melanoma, 90.6 µM; with OVCAR-8 ovarian, 80.1 µM; in the test on SF-539 CNS, greater than 100 µM; with SW-620 colon, greater than 100 µM; in the test with TK-10 renal, greater than 100 µM. The values for the TGI in the test with U251 CNS and in the test on UO-31 renal were 30.3 µM and greater than 100 µM, respectively.
